# US20210253520A1, “POLYMYXIN-BASED COMPOUNDS USEFUL AS ANTIBACTERIAL AGENTS” (UNIVERSITAT DE BARCELONA, priority 2018, published 2021)
# Where two headings read alike, the source gives them in different places. Numbered stars: 1 amine (or outer) side, 2 acyl side, 3 side chain; on linkers, the order of the positions; unused ones are H or OH. Bridge positions count the residues as written; N and C are the ends. Square brackets hold non-standard residues; d marks the D form. Peptide text beside a SMILES is read from it. X1 = C[C@@H](O)[C@@H](CS[*:1])N[*:2]; dGly(nOct) = CCCCCCCC[C@@H](N)C(=O)O; Dab = NCC[C@H](N)C(=O)O
# Tests used:
# [1] = test system: P. aeruginosa ATCC 27853; conditions: comparative examples, extracted from Scientific Reports 5:10558 or WO2017093210A1; cited from earlier work
# [2] = test system: K. pneumoniae MB674; conditions: comparative examples, extracted from Scientific Reports 5:10558 or WO2017093210A1; cited from earlier work
# [3] = test system: Swiss CD-1 female mice; test: Nephrotoxicity study, histopathological scoring of kidney lesions; assay type: in vivo; parameters: key to Group Score (GS): mean of per-animal summed 0-4 lesion scores; higher = more nephrotoxic; key to Animal Score (AS), Partial AS: sum of 0-4 lesion parameter scores; higher = more nephrotoxic; conditions: for nephrotoxicity in mice, in words: nephrotoxicity tests carried out in mice, statement of the background; for Animal Score (AS), Partial AS: sum over all mice
# Protocol: Swiss CD-1 female mice weighing approximately 20-24 g (JANVIER Labs) were used, housed in an individually ventilated cage system under specific pathogen-free conditions, and water and food supplied ad libitum. This study plan and the conduct of the study were subjected to review by the Scientific Park of Barcelona Ethical Review Process with the current study procedure Code CEEA (AR) 9377-P2. Mice were administered at a dose of 12 mg/Kg every 2 hours for a total of 6 administrations (total dose 72 mg/Kg), unless otherwise stated. After 20 h, animals were anesthesized with isoflurane, kidneys extracted and prepared for histopathological evaluation, and finally animales were sacrificed. Kidney lesions (tubule dilation, necrosis, tubule casts, cell vacuolization, cell desquamation, and cell swelling) were quantified by microscopical observation (see for instance, Roberts, ACS Infect. Dis., 2015, 1, 568). Each one of these parameters was scored with values from 0 to 4 for each animal, as a global result of observations in kidney. Partial scores have been added up to obtain a final score for each animal (Animal Score, AS). The mean of animal score has been obtained to define the Group Score (GS). The higher the score, the more nephrotoxic a compound is. The nephrotoxicity score has been determined as according to the following table of approximated values: […]
# [4] = test system: E. coli MB1410; conditions: comparative examples, extracted from Scientific Reports 5:10558 or WO2017093210A1; cited from earlier work
# [5] = test system: E. coli ATCC 25922; conditions: comparative examples, extracted from Scientific Reports 5:10558 or WO2017093210A1; cited from earlier work
# [6] = test system: P. aeruginosa 36A; conditions: comparative examples, extracted from Scientific Reports 5:10558 or WO2017093210A1; cited from earlier work
# [7] = in vivo; cited from earlier work
# [8] = cited from earlier work
# [9] = test system: K. pneumoniae MB674; assay type: cell-based
# Protocol: (§1) The antibacterial activity of the polymyxin lipopeptides was measured at ISGlobal following the microdilution test to determine the Minimal Inhibitory Concentrations (MIC) in sterile 96-well polypropilene plates. The concentration range was 32 a […] in Iso-Sensitest broth (Oxoid, ThermoFisher). The results were carried out in triplicate and the highest MIC is the one shown. Bacterial strains were grown in blood agar plates at 37° C. for 17 h. Fresh colonies were used to prepare a McFarland 0.5 solution that was finally added to the plates at 1 to 100 dilution
# (§2) Samples of sensitive and multi-drug resistant bacteria were: E. coli ATCC 25922 E. coli MB1410; K. pneumoniae MB674; P. aeruginosa ATCC 27853; P. aeruginosa 36A.
# [10] = test system: E. coli MB1410; test: microbe, parasite or virus in culture; assay type: cell-based
# Protocol: as §1, §2
# [11] = test system: P. aeruginosa ATCC 27853; test: microbe, parasite or virus in culture; assay type: cell-based
# Protocol: as §1, §2
# [12] = test system: E. coli ATCC 25922; test: microbe, parasite or virus in culture; assay type: cell-based
# Protocol: as §1, §2
# [13] = test system: P. aeruginosa 36A; test: microbe, parasite or virus in culture; assay type: cell-based
# Protocol: as §1, §2
# [14] = Table 8, 12 mg/Kg every 2 hours × 6 sc, total 72 mg/Kg, 3 mice
# [15] = Table 6, 12 mg/Kg every 2 hours × 6, subcutaneous, total 72 mg/Kg
# [16] = Table 6, mean of animal scores, 12 mg/Kg every 2 hours × 6, subcutaneous, total 72 mg/Kg
# [17] = Table 6, sum of mouse scores, 12 mg/Kg every 2 hours × 6, subcutaneous, total 72 mg/Kg
# [18] = Table 7, 8 mg/Kg every 2 hours × 6, total 48 mg/Kg
compound,measurement,setting,value
Heptanoyl-Dab-Thr-Dab-cyclo(S-S)[Cys-Dab-DAoc-Nle-Dab-Dab-DCys] [compound 3],antibacterial activity (MIC),[1],2 µg/mL
same,antibacterial activity (MIC),[2],2 µg/mL
same,"AS, Partial AS",[3]; [14],8
same,"Cell vacuolization, Partial AS",[3]; [14],3
same,Group Score (GS),[3]; [14],8
same,Mice found dead,[3]; [14],2 dead
same,"Tubular dilaion, Partial AS",[3]; [14],2
same,"Tubular necrosis, Partial AS",[3]; [14],3
same,"nephrotoxicity in mice, in words",[3],showed nephrotoxicity
same,antibacterial activity (MIC),[4],2 µg/mL
same,antibacterial activity (MIC),[5],16 µg/mL
same,antibacterial activity (MIC),[6],2 µg/mL
Decanoyl-Dab-Thr-Dab-cyclo(S-S)[Cys-Dab-DPhe-Nle-Dab-Dab-DCys] [compound 2],"toxicity in acute toxicity tests, in words",[7],did not showed toxicity
same,"AS, Partial AS",[3]; [14],4
same,"Cell vacuolization, Partial AS",[3]; [14],0
same,"Cloudy swelling, Partial AS",[3]; [14],3
same,Group Score (GS),[3]; [14],4
same,Mice found dead,[3]; [14],2 dead
same,"Tubular casts, Partial AS",[3]; [14],0
same,"Tubular dilaion, Partial AS",[3]; [14],1
same,"Tubular necrosis, Partial AS",[3]; [14],0
same,"nephrotoxicity in mice, in words",[3]; listed as Decanoyl-Dab-Thr-Dab-ciclo(S—S)[Cys-Dab-DPhe-Nle-Dab-Dab-DCys),showed toxicity
same,"nephrotoxicity in mice, in words",[3]; listed as Decanoyl-Dab-Thr-Dab-cyclo(S—S)[Cys-Dab-DPhe-Leu-Dab-Dab-DCys],showed nephrotoxicity
Polymyxin B [PxB],antibacterial activity (MIC),[1],1 µg/mL
same,antibacterial activity (MIC),[2],0.25 µg/mL
same,Mice found dead,[3]; [15],None
same,Group Score (GS),[3]; [16],3.4
same,"Cell desquamation, Partial AS",[3]; [17],0
same,"Cell vacuolization, Partial AS",[3]; [17],1
same,"Cloudy swelling, Partial AS",[3]; [17],21
same,"Tubular casts, Partial AS",[3]; [17],3
same,"Tubular dilation, Partial AS",[3]; [17],1
same,"Tubular necrosis, Partial AS",[3]; [17],1
same,"Animal Score (AS), Partial AS",[3]; [15],27
same,"AS, Partial AS",[3]; [14],7
same,"Cell vacuolization, Partial AS",[3]; [14],0
same,"Cloudy swelling, Partial AS",[3]; [14],6
same,Group Score (GS),[3]; [14],2.3
same,Mice found dead,[3]; [14],none
same,"Tubular casts, Partial AS",[3]; [14],0
same,"Tubular dilaion, Partial AS",[3]; [14],1
same,"Tubular necrosis, Partial AS",[3]; [14],0
same,antibacterial activity (MIC),[4],0.5 µg/mL
same,antibacterial activity (MIC),[5],0.25 µg/mL
same,kidney concentration relative to serum concentration,[8]; after 6 h,more than 30 time
same,period of accumulation in kidneys,"[8]; long after administration, when barely detectable in serum",at least 48 h
same,antibacterial activity (MIC),[6],1 µg/mL
DAoc-Thr-Dab-cyclo(S-S)[Cys-Dab-DAoc-Leu-Dab-Dab-DCys] [compound 4],antibacterial activity (MIC),[1],2 µg/mL
same,antibacterial activity (MIC),[2],2 µg/mL
same,Group Score (GS),[3]; [14],All mice dead
same,Mice found dead,[3]; [14],3
same,"nephrotoxicity in mice, in words",[3],showed nephrotoxicity
same,antibacterial activity (MIC),[4],4 µg/mL
same,antibacterial activity (MIC),[5],4 µg/mL
same,antibacterial activity (MIC),[6],2 µg/mL
Colistin [Col.],antibacterial activity (MIC),[1],2 µg/mL
same,antibacterial activity (MIC),[2],1 µg/mL
same,MIC,"[9]; resistance profile of strain K. pneumoniae MB674, Table 3",0.2 µg/mL
same,MIC,"[10]; resistance profile of strain E. coli MB1410, Table 3",0.75 µg/mL
same,MIC,"[11]; resistance profile of strain P. aeruginosa ATCC 27853, Table 3",2 µg/mL
same,MIC,"[12]; resistance profile of strain E. coli ATCC 25922, Table 3",0.5 µg/mL
same,MIC,"[13]; resistance profile of strain P. aeruginosa 36A, Table 3",1 µg/mL
same,antibacterial activity (MIC),[4],0.5 µg/mL
same,antibacterial activity (MIC),[5],0.5 µg/mL
same,antibacterial activity (MIC),[6],1 µg/mL
DAoc-Thr-Dab-cyclo(S-S)[Cys-Dab-DNIe-Leu-Dab-Dab-DCys] [compound 5],antibacterial activity (MIC),[1],4 µg/mL
same,antibacterial activity (MIC),[2],8 µg/mL
same,"AS, Partial AS",[3]; [14],13
same,"Cell vacuolization, Partial AS",[3]; [14],0
same,"Cloudy swelling, Partial AS",[3]; [14],4
same,Group Score (GS),[3]; [14],4.3
same,Mice found dead,[3]; [14],none
same,"Tubular casts, Partial AS",[3]; [14],3
same,"Tubular dilaion, Partial AS",[3]; [14],6
same,"Tubular necrosis, Partial AS",[3]; [14],0
same,"nephrotoxicity in mice, in words",[3],showed nephrotoxicity
same,antibacterial activity (MIC),[4],8 µg/mL
same,antibacterial activity (MIC),[5],16 µg/mL
same,antibacterial activity (MIC),[6],2 µg/mL
"CCCCCCCC[C@@H](N)C(=O)N[C@H](C(=O)N[C@@H](CCN)C(=O)N[C@H]1CSSC[C@H]([C@@H](C)O)NC(=O)[C@H](CCN)NC(=O)[C@H](CCN)NC(=O)[C@H](CC(C)C)NC(=O)[C@@H](CC(C)C)NC(=O)[C@H](CCN)NC1=O)[C@@H](C)O [Example 6, DAdec-Thr-Dab-cyclo(S-S)[Cys-Dab-DLeu-Leu-Dab-Dab-Ttr]] (H-[dGly(nOct)]T[Dab]C[Dab][dL]L[Dab][Dab]; linker 4-C via X1; N-terminus assumed)",antibacterial activity (MIC),[9]; MB674,0.5 µg/mL
same,antibacterial activity (MIC),[10]; MB1410,0.5 µg/mL
same,antibacterial activity (MIC),[11]; ATCC 27853,1 µg/mL
same,antibacterial activity (MIC),[12]; ATCC 25922,2 µg/mL
same,antibacterial activity (MIC),[13]; 36A,0.5 µg/mL
same,Mice found dead,[3]; [15],2
same,Group Score (GS),[3]; [16],1
same,"Cell desquamation, Partial AS",[3]; [17],0
same,"Cell vacuolization, Partial AS",[3]; [17],0
same,"Cloudy swelling, Partial AS",[3]; [17],5
same,"Tubular casts, Partial AS",[3]; [17],1
same,"Tubular dilation, Partial AS",[3]; [17],0
same,"Tubular necrosis, Partial AS",[3]; [17],0
same,"Animal Score (AS), Partial AS",[3]; [15],6
same,"AS, Partial AS",[3]; [18],1
same,"Cell vacuolization, Partial AS",[3]; [18],0
same,"Cloudy swelling, Partial AS",[3]; [18],1
same,Group Score (GS),[3]; [18],0.2
same,Mice found dead,[3]; [18],None
same,"Tubular casts, Partial AS",[3]; [18],0
same,"Tubular dilation, Partial AS",[3]; [18],0
same,"Tubular necrosis, Partial AS",[3]; [18],0
